Measurements: PMC11551755, “Structure-based discovery of first inhibitors targeting the helicase activity of human PIF1” (Nucleic Acids Research, 2024)

Columns and labels:
[1] = target: T1, FLhPIF1 (full length human PIF1) (Homo sapiens, UniProt Q9H611); assay: radiometric strand displacement helicase assay, no pre-incubation; assay type: biochemical; conditions: for inhibition at 1000 µM: 1 mM single point, gel-based DNA unwinding assay, four repeats (S4 n=3); for IC50: 0.0078–2 mM compound, 10 nM FLhPIF1, 0.1 nM DNA substrate, n = 3, read-out: IC50 for inhibition of FLhPIF1 helicase activity; for fold increase in inhibition at 1 mM relative to compound 1: 1 mM single point helicase screen
T1 construct: Full length human PIF1 (FLhPIF1) was expressed and purified as a His-SUMO fusion; His-SUMO (cleaved yes); made in house; 'following similar protocols' to hPIF1HD (ArcticExpress BL21(DE3) E. coli)
T1 sequence (Q9H611 1-641): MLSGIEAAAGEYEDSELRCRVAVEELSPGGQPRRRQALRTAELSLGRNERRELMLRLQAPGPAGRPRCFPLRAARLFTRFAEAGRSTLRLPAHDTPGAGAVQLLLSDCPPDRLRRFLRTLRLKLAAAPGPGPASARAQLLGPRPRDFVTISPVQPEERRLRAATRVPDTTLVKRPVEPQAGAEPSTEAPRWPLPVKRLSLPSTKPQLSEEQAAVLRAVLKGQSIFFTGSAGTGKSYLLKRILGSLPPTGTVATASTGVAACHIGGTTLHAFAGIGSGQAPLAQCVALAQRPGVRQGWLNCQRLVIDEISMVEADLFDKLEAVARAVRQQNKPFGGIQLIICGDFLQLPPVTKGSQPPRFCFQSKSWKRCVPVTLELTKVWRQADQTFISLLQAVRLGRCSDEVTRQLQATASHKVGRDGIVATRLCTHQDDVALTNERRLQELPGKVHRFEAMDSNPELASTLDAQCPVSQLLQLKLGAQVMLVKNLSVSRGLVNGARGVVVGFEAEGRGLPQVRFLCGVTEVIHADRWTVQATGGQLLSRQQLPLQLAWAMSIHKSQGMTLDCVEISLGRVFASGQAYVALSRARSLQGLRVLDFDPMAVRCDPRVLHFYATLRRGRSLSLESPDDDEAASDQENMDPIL
Description: Helicase activity was assayed using a radiometric strand displacement assay employing a partially single- and double-stranded substrate generated by annealing two oligonucleotides: 5′-(T)55-[…] and 5′-[…], as described previously ([19],[28]). […] SMIs (100 mM stocks in DMSO) were assayed at up to 2 mM without pre-incubation with FLhPIF1, unless otherwise stated. […] Dried gels were exposed to phosphorimaging plates (Fujifilm) for imaging and quantification (Fuji FLA3000, image gauge V3.3 software). IC50 values were analysed by non-linear regression (variable slope) using GraphPad Prism.

[2] = target: T2, human UPF1 (hUPF1) helicase (Homo sapiens, UniProt Q92900); assay: helicase assay after pre-incubation of SMI with hUPF1; assay type: biochemical; conditions: for IC50: 2 h pre-incubation at 22°C with 100 nM hUPF1, then 1:10 dilution into helicase assay, read-out: IC50 for dsDNA unwinding by hUPF1 following pre-incubation
T2 construct: Full-length human UPF1 helicase was expressed and purified as described previously; made in house
T2 sequence (Q92900 1-1129): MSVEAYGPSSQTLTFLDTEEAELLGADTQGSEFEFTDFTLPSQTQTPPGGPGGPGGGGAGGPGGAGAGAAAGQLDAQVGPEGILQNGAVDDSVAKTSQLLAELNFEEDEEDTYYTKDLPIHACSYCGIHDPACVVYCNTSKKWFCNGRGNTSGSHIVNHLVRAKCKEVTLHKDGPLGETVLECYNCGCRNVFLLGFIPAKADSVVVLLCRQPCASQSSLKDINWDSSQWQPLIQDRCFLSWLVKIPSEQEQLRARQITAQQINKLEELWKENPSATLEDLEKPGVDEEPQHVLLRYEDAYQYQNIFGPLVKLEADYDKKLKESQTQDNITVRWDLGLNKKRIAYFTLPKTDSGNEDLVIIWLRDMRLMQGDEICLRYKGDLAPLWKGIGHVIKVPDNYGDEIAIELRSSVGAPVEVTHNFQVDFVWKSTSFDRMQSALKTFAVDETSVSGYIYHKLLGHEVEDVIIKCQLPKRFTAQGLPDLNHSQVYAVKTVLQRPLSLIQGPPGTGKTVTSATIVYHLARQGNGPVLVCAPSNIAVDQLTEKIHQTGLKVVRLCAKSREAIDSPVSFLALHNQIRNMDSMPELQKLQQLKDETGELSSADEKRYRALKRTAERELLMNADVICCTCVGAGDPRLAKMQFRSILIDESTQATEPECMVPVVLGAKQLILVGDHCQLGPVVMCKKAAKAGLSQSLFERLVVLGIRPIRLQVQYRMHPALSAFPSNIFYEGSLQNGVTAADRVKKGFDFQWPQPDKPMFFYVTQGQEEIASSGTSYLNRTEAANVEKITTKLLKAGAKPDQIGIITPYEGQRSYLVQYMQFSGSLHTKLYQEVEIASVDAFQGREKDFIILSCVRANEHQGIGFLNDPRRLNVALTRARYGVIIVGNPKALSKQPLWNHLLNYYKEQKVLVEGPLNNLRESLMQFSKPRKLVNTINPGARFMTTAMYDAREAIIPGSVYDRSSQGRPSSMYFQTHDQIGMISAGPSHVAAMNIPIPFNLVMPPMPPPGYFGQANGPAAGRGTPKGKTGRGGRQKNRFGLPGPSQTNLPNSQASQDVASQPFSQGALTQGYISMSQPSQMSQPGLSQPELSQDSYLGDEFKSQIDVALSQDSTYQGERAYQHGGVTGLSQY
Description: Full-length human UPF1 helicase was expressed and purified as described previously ([36]).
In parallel, IC50 values for inhibition of human UPF1 (hUPF1) helicase activity by the SMIs were also determined under the same conditions. UPF1-like SF1B helicases are the most closely related family of helicases to PIF1, with significant structural and mechanistic similarity ([52]).
Figure 6. SMI IC50 for dsDNA unwinding determined following pre-incubation. SMIs (0.0078–2 mM SMI) were incubated for 2 h at 22°C (100 nM FLhPIF1 or hUPF1) before dilution (1:10) in the standard helicase assay (0.1 nM DNA substrate). For 1D and 6, structures, electrophoresis of FLhPIF1 reaction product and graphs for IC50 value determination are shown. The graphed data include the activity of SMIs towards hUPF1 and IC50 values obtained are given. See Supplementary Figure S14 for the complete data set. TEXT PRINTED IN THE PICTURE: 1D: IC50 (μM): PIF1: 978 ± 221; IC50 (μM): UPF1: N.D. | 6: IC50 (μM): PIF1: 79.4 ± 16; IC50 (μM): UPF1: 1750 ± 426
Supplementary Figure 14. IC50 DNA unwinding determined following 2 hours pre-incubation. […] The assay procedure and reaction conditions for each helicase were identical (see methods, main manuscript). The figure complements main manuscript Figure 6. […] The reason for this is unclear.

SMILES: CC(=O)c1ccc(-c2csc(N)n2)cc1 [Compound 2]
- inhibition at 1000 µM [1]: 79.1 ± 5.2%
- IC50 ([1]; no pre-incubation): 165 ± 75 µM
- IC50 [2]: 445 ± 132 µM

SMILES: N#Cc1ccc(-c2csc(N)n2)cc1 [Compound 5]
- inhibition at 1000 µM [1]: 84 ± 4.1%
- IC50 ([1]; no pre-incubation): 105 ± 6 µM
- IC50 [2]: 289 ± 127 µM

SMILES: Nc1nc(-c2ccc(C(=O)c3ccccc3)cc2)cs1 [Compound 6]
- inhibition at 1000 µM [1]: 82.3 ± 6.6%
- IC50 ([1]; no pre-incubation): 36 ± 7 µM
- fold improvement of helicase IC50 compared to progenitor 1F ([1]; no pre-incubation): 30 fold
- fold difference in sensitivity, hUPF1 vs FLhPIF1 IC50 ([2]; 2 h pre-incubation): ~22 fold
- IC50 [2]: 1750 ± 426 µM

SMILES: CC(=O)Nc1ccc(-c2csc(N)n2)cc1-c1ccc(C)cc1 [Compound 10]
- inhibition of FLhPIF1 helicase activity in 1 mM single-point screen ([1]; 1 mM): strongly inhibited the protein
- fold increase in inhibition at 1 mM relative to compound 1 [1]: up to 6.5 fold
- inhibition at 1000 µM [1]: 80.9 ± 5.5%
- IC50 ([1]; no pre-incubation): 174 ± 7 µM

SMILES: CC(=O)Nc1ccc(-c2csc(N)n2)cc1C1=CCNCC1 [Compound 11]
- fold increase in inhibition at 1 mM relative to compound 1 [1]: up to 6.5 fold
- inhibition at 1000 µM [1]: 84.8 ± 3.4%
- IC50 ([1]; no pre-incubation): 188 ± 8 µM
- IC50 [2]: 576 ± 146 µM
